Reference: patent publication US20120245078A1, “MEANS AND METHODS FOR TREATING ISCHEMIC CONDITIONS” (priority 2009, published 2012)

How the values were obtained:
[1] = system: focal cerebral ischemia (tMCAO); conditions: mice, 24 h after 60 min tMCAO; same doses; untreated control 48.3±16.7 or 56.6±10.0
Description: The intraluminal suture was left in situ for 60 minutes. Then animals were re-anesthetized and the occluding monofilament was withdrawn to allow reperfusion. […] Control mice (n=10) received 0.9% NaCl solution.
Control mice (n=10) received 0.9% NaCl solution.

[2] = system: traumatic brain injury (CCI); test: Controlled cortical impact (CCI) traumatic brain injury model; format: in vivo, mouse; conditions: mice, 24 h after CCI; given 30 min after CCI; bortezomib 0.2 mg/kg, dexamethasone 10 mg/kg; scale 0 to 10
Description: As is known in the art, the neurological severity score is a measure of neurological impairment and is quantified on a scale from 0 (no impairment) to 10 (maximum impairment). When determining the neurological severity score, primarily the motoric activity is assessed (walking on a bar, false steps, search or foraging, respectively, behaviour and the like).

occludin protein = test: Western blot and densitometry, occludin protein in cEND cells; format: cell-based, mouse; conditions: for occludin protein, of control: GR-K426A-transfected cEND cells, after O2/glucose deprivation
Description: (C)-(D) The influence of O2/glucose-deprivation on the tight junction proteins occludin and claudin-5 could be shown by Western Blot: for this, cells were seeded on plastic cell culture flasks coated with collagen IV, treated as indicated and subjected to SDS-gel electrophoresis and Western blotting. A four-hour exposure to O2/glucose-deprivation caused a significant (P<0.05) decrease in occludin protein to 82±3% as compared to the untreated control. […]. Comparably, O2/glucose-deprivation caused a significant (P<0.001) decrease in claudin-5 protein to 61±4% as compared to the untreated control. […]. (C) Effects of proteasomal inhibition on occludin protein levels were examined by western blot analysis and densitometric analysis.

claudin-5 protein = test: Western blot and densitometry, claudin-5 protein in cEND cells; format: cell-based, mouse; conditions: GR-K426A-transfected cEND cells, O2/glucose deprivation, presence of dexamethasone (K426A O2/glu depr+dex)
Description: (C)-(D) The influence of O2/glucose-deprivation on the tight junction proteins occludin and claudin-5 could be shown by Western Blot: for this, cells were seeded on plastic cell culture flasks coated with collagen IV, treated as indicated and subjected to SDS-gel electrophoresis and Western blotting. A four-hour exposure to O2/glucose-deprivation caused a significant (P<0.05) decrease in occludin protein to 82±3% as compared to the untreated control. […]. Comparably, O2/glucose-deprivation caused a significant (P<0.001) decrease in claudin-5 protein to 61±4% as compared to the untreated control. […].

GR protein = test: Western blot and densitometry, GR protein levels in cEND cells; format: cell-based, mouse; conditions: normoxia, 100 nM dexamethasone 24 h (normox+dex)
Description: (A) GR protein levels after O2/glucose-deprivation.
(§1) Electrophoresis and immunoblotting, quantitative real-time RT-PCR, transendothelial electrical resistance measurements, transfection and luciferase assay were performed following standard procedures.

cEND monolayers = test: Transendothelial electrical resistance (TER) of cEND monolayers, normoxia or O2/glucose deprivation; format: cell-based, mouse; conditions: GR-K426A-transfected cEND cells, after O2/glucose deprivation, without dexamethasone (K426A O2/glu depr)
Description: Growth medium (10% FCS) was changed after 5 days in culture to differentiation medium ([…], ±additions) and analysis of the TER was performed after O2/glucose-deprivation as indicated. […] Hek293 cells were maintained in DMEM, 10% FCS. […] We performed cell viability assays following standard procedures.
as §1

claudin-5 = test: Real time RT-PCR, claudin-5 gene expression in cEND cells; format: cell-based, mouse; conditions: introduction of GR-K426A
Description: (§2) Normox control (black bars), normox+dex (white bars), O2/glu depr (light grey bars), O2/glu depr+dex (dark grey bars).
as §1
(§3) At first, expression levels of genes encoding the tight junction proteins occludin, claudins-3, -5, -12 and the adherens junction protein, VE-cadherin, were assessed by real time RT-PCR (FIG. 2B).

VE-cadherin = test: Real time RT-PCR, VE-cadherin gene expression in cEND cells; format: cell-based, mouse; conditions: introduction of GR-K426A
Description: as §2, §1, §3

Molecule: CC(C)C[C@@H](NC(=O)[C@@H](Cc1ccccc1)NC(=O)c1cnccn1)B(O)O [bortezomib, [(1S)-3-methyl-1-[[(2R)-3-phenyl-2-(pyrazine-2-carbonylamino)propanoyl]amino]butyl]boronic acid]
- volume of Evan's blue extravasation (edema volume) [1]: no influence
- neurological severity score [2]: does not lead to any statistically significant improvement

Molecule: C[C@@H]1C[C@H]2[C@@H]3CCC4=CC(=O)C=C[C@]4(C)[C@@]3(F)[C@@H](O)C[C@]2(C)[C@@]1(O)C(=O)CO [dexamethasone]
- occludin protein, of control (occludin protein; dexamethasone (K426A O2/glu depr+dex)): 122±5%
- occludin protein content, of control (occludin protein; normoxia, dexamethasone): 120±7%
- claudin-5 protein level (claudin-5 protein): 44±11%
- GR protein, of untreated cells (GR protein): 66±2%

B1: GR-K426A: mutant murine glucocorticoid receptor, point mutation at lysine-426, resistant to proteasomal degradation, transfected into cEND cells (SEQ ID NOs: 3 and 4) (protein)
chain: MDSKESLAPPGRDEVPSSLLGRGRGSVMDLYKTLRGGATVKVSASSPSVAAASQADSKQQRILLDFSKGSASNAQQQQQQQQPQPDLSKAVSLSMGLYMGETETKVMGNDLGYPQQGQLGLSSGETDFRLLEESIANLNRSTSRPENPKSSTPAAGCATPTEKEFPQTHSDPSSEQQNRKSQPGTNGGSVKLYTTDQSTFDILQDLEFSAGSPGKETNESPWRSDLLIDENLLSPLAGEDDPFLLEGDVNEDCKPLILPDTKPKIQDTGDTILSSPSSVALPQVKTEKDDFIELCTPGVIKQEKLGPVYCQASFSGTNIIGNKMSAISVHGVSTSGGQMYHYDMNTASLSQQQDQKPVFNVIPPIPVGSENWNRCQGSGEDNLTSLGAMNFAGRSVFSNGYSSPGMRPDVSSPPSSSSTATGPPPALCLVCSDEASVCHYGVLTCGSCKVFFKRAVEGQHNYLCAGRNDCIIDKIRRKNCPACRYRKCLQAGMNLEARKTKKKIKGIQQATAGVSQDTSENANKTIVPAALPQLTPTLVSLLEVIEPEVLYAGYDSSVPDSAWRIMTTLNMLGGRQVIAAVKWAKAIPGFRNLHLDDQMTLLQYSWMFLMAFALGWRSYRQASGNLLCFAPDLIINEQRMTLPCMYDQCKHMLFISTELQRLQVSYEEYLCMKTLLLLSSVPKEGLKSQELFDEIRMTYIKELGKAIVKREGNSSQNWQRFYQLTKLLDSMHDVVENLLSYCFQTFLDKSMSIEFPEMLAEIITNQIPKYSNGNIKKLLFHQK
modifications: expressed in transfected cEND cells; mus musculus
- TER (cEND monolayers): 239+58 Ωcm^2
- claudin-5 gene expression level (claudin-5): not influenced
- VE-cadherin gene expression level (VE-cadherin): not influenced
- occludin protein, of control (occludin protein; without dexamethasone (K426A O2/glu depr)): 58±7%
